Test results reported in the CombiSolv-Exp solvation set (Vermeire and Green 2021).

Experiment: solvent given as SMILES

CCBr
Conditions | solvation free energy, 298 K [kcal/mol]
in Brc1cccc2ccccc12 | -3.23
in C=CCCCCCCCCCCCCCC | -2.91
in CC(=O)N(C)C | -3.44
in CC(=O)OCc1ccccc1 | -3.32
in CC(C)CC(C)(C)C | -2.95
in CCC(C)=O | -3.53
in CCCCCC | -3.14
in CCCCCCC | -3.04
in CCCCCCCC | -2.99
in CCCCCCCCO | -2.88
in CCCCCl | -3.51
in CCCCO | -3.03
in CCO | -3.03
in CCOC(C)=O | -3.53
in CN(C)C=O | -3.22
in Cc1ccc(C)cc1 | -3.41
in ClC(Cl)(Cl)Cl | -3.45
in ClC(Cl)Cl | -3.77
in ClCCCl | -3.6
in Clc1ccccc1 | -3.51
in N#Cc1ccccc1 | -3.41
in O | -0.74
in O=C1CCCCC1 | -3.55
in c1ccc2ncccc2c1 | -3.31

ClC1=C(Cl)C2(Cl)C3C(Cl)CC(Cl)C3C1(Cl)C2(Cl)Cl (stereo not drawn)
Conditions | solvation free energy, 298 K [kcal/mol]
in O | -3.44

Cc1cc(NS(=O)(=O)c2ccc(N)cc2)no1
Conditions | solvation free energy, 298 K [kcal/mol]
in O | -17.8

OC1CCCC1
Conditions | solvation free energy, 298 K [kcal/mol]
in C1COCCO1 | -6.33
in CC(C)=O | -6.28
in O | -5.5

COc1cc(C(C)=O)ccc1O
Conditions | solvation free energy, 298 K [kcal/mol]
in CCC(C)=O | -12.2
in CCCO | -11.8
in Cc1ccccc1 | -10.8
in ClC=CCl | -12

CC(=O)c1c(C)[nH]n(-c2ccccc2)c1=O
Conditions | solvation free energy, 298 K [kcal/mol]
in O | -9.89

O=C(C(=O)c1ccccc1)c1ccccc1
Conditions | solvation free energy, 298 K [kcal/mol]
in C1CCOC1 | -12.6
in C1COCCO1 | -12.5
in CC(=O)N(C)C | -12.6
in CC(C)(C)O | -10.8
in CC(C)=O | -12.5
in CC(C)CC(C)(C)C | -10.2
in CC(C)CC(C)O | -10.8
in CC(C)CCO | -10.8
in CC(C)CO | -10.8
in CC(C)O | -10.8
in CC(C)OC(C)C | -11.2
in CC(C)OCCO | -11.8
in CCC(C)(C)O | -11.1
in CCC(C)=O | -12.5
in CCC(C)O | -10.9
in CCCC(C)O | -10.9
in CCCCC(CC)CO | -10.8
in CCCCCC | -10.3
in CCCCCCC | -10.3
in CCCCCCCC | -10.3
in CCCCCCCCC=CCCCCCCCC(=O)OCC(COC(=O)CCCCCCCC=CCCCCCCCC)OC(=O)CCCCCCCC=CCCCCCCCC | -11.2
in CCCCCCCCCC | -10.3
in CCCCCCCCCCO | -10.9
in CCCCCCCCO | -10.8
in CCCCCCCO | -10.9
in CCCCCCO | -10.9
in CCCCCO | -11
in CCCCCl | -12.1
in CCCCO | -11
in CCCCOC(C)=O | -12.2
in CCCCOCCO | -11.8
in CCCO | -11.1
in CCCOCCO | -11.8
in CCO | -11.1
in CCOC(C)=O | -12.3
in CCOCC | -11.8
in CCOCCO | -11.9
in CO | -11.2
in COC(C)(C)C | -11.8
in COC(C)=O | -12.4
in COC(C)CCO | -11.8
in ClC(Cl)(Cl)Cl | -12
in ClCCCl | -12.7
in Clc1ccccc1 | -12.4
in Fc1ccccc1 | -12.4
in O | -6.64
in O=C1CCCCC1 | -12.6

C=C(C)C1CCC2(C)CCCC(=C)C2C1 (stereo not drawn)
Conditions | solvation free energy, 298 K [kcal/mol]
in O | -0.05

CCNc1ccccc1
Conditions | solvation free energy, 298 K [kcal/mol]
in O | -4.76

C#CCCCCCCC
Conditions | solvation free energy, 298 K [kcal/mol]
in O | 0.74

OC(F)(C(F)F)C(F)(F)F (stereo not drawn)
Conditions | solvation free energy, 298 K [kcal/mol]
in CO | -6.53

C=CC(C)(O)CCC=C(C)C (stereo not drawn)
Conditions | solvation free energy, 298 K [kcal/mol]
in O | -4.17

Cc1cccs1
Conditions | solvation free energy, 298 K [kcal/mol]
in O | -1.38

CC(C)C=O
Conditions | solvation free energy, 298 K [kcal/mol]
in CC(=O)N(C)C | -4.04
in CCCCN(C=O)CCCC | -3.78
in CCOC(C)=O | -4.05
in CN1CCCC1=O | -3.79
in CN1CCCCC1=O | -3.92
in CN(C)C=O | -4.09
in CNC(C)=O | -3.68
in O | -2.86
in O=CN1CCOCC1 | -3.63

O=[N+]([O-])c1ccc(O)c([N+](=O)[O-])c1
Conditions | solvation free energy, 298 K [kcal/mol]
in CCCCCC | -8.09
in CCCCCCC | -8.08
in CCCCCCCC | -8.05
in O | -7.61

CC=CCC
Conditions | solvation free energy, 298 K [kcal/mol]
in CN(C)C=O | -2.46

C1CCCC1
Conditions | solvation free energy, 298 K [kcal/mol]
in CC#N | -2.52
in CC(C)CCCC(C)CCCC(C)CCCCC(C)CCCC(C)CCCC(C)C | -3.23
in CC(C)O | -2.89
in CCCC#N | -2.86
in CCCCCC | -3.7
in CCCCCCCCCC | -3.46
in CCCCCCCCCCCC | -3.37
in CCCCCCCCCCCCCCCC | -3.31
in CCCCCCCO | -3.1
in CCCO | -2.89
in CCO | -2.78
in CN1CCCC1=O | -2.7
in CN1CCCCC1=O | -2.81
in CN1CCN(C)C1=O | -2.56
in CN(C)C=O | -2.73
in CO | -2.62
in COC(C)(C)C | -3.55
in ClC(Cl)(Cl)Cl | -3.78
in ClC=CCl | -3.78
in N#CCCCCC#N | -2.08
in N#Cc1ccccc1 | -3
in NCCO | -1.24
in O | 1.2
in O=CN1CCOCC1 | -2.22
in O=Cc1ccco1 | -2.41
in OC1CCCCC1 | -3.02
in OCc1ccccc1 | -2.7
in OCc1ccco1 | -2.39
in S=C=S | -3.84
in c1ccc2ncccc2c1 | -3.21

CCCI
Conditions | solvation free energy, 298 K [kcal/mol]
in C=CCCCCCCCCCCCCCC | -4.16
in ClC(Cl)(Cl)Cl | -4.97
in O | -0.56

CCCC=O
Conditions | solvation free energy, 298 K [kcal/mol]
in C1CCOC1 | -4.42
in C=CCCCC | -3.65
in C=CCCCCCCCCCCCCCC | -3.15
in CC(C)CC(C)(C)C | -3.45
in CC(C)CCCC(C)CCCC(C)CCCCC(C)CCCC(C)CCCC(C)C | -3.09
in CCCCCCCC | -3.23
in CCCCCCCCCCCCCCCC | -3.18
in CCCCCCCCO | -4.64
in CCCCCO | -3.7
in CCOC(C)=O | -4.33
in CN1CCCC1=O | -4.16
in CO | -4.34
in NC=O | -3.52
in O | -3.12
in O=CN1CCOCC1 | -3.94
in [2H]O[2H] | -3.11

CC(N)C(=O)C1OS(=O)OCC2C1C1(Cl)C(Cl)=C(Cl)C2(Cl)C1(Cl)Cl (stereo not drawn)
Conditions | solvation free energy, 298 K [kcal/mol]
in CCCCCCCCO | -11.5

FC(Cl)(Cl)C(F)(Cl)Cl
Conditions | solvation free energy, 298 K [kcal/mol]
in C1CCOC1 | -4.82
in C1COCCO1 | -4.46
in CC(C)=O | -4.45
in CCCCCC | -4.43
in CCCCCCC | -3.98
in CCCO | -3.64
in CCOC(C)=O | -4.62
in COC(C)(C)C | -4.68
in O | 0.87

O=NN1CCOCC1
Conditions | solvation free energy, 298 K [kcal/mol]
in O | -7.78

Brc1ccccc1
Conditions | solvation free energy, 298 K [kcal/mol]
in C1CCOC1 | -6.45
in C1COCCO1 | -6.45
in CCCCCC | -5.66
in CCCCCCC | -5.72
in CCCCCCCCCC | -5.43
in CCCCCCCCCCCCCCCC | -5.47
in CN(C)C=O | -6.21
in COCCO | -5.73
in ClC(Cl)(Cl)Cl | -6.23
in NC=O | -4.11
in O | -1.46
in OCCO | -4.42
